From US9790503B2, “VHZ for diagnosis and treatment of cancer” (AGENCY FOR SCIENCE, TECHNOLOGY AND RESEARCH (A*STAR), priority 2007, dated 2017)

Target: T1, VHZ-GST (Homo sapiens, UniProt Q9BVJ7)
T1 construct: made in house
T1 sequence (Q9BVJ7 1-150): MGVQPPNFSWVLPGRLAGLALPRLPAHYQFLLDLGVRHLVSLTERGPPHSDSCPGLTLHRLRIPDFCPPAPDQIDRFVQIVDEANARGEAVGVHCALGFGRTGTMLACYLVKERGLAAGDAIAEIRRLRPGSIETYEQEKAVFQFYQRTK
Assay: Tyrosine phosphatase assay (EnzChek kit, fluorogenic substrate)
Format: biochemical
Settings: 10 μM sodium orthovanadate added to the reaction; VHZ-GST 0.675 picomoles; fluorescence excitation/emission 358/452 nm
Procedure: The EnzChek kit (Invitrogen, R22065) is used. As per the manufacturer's protocol, the fluorogenic substrate is reconstituted in the assay wells with buffer; the desired potential PTPases (0.675 picomole for each protein: VHZ-GST, VHZ-GST+Phosphatase inhibitor, VHZ(C95S)-GST, and control GST) are added to the wells and incubated 30 min or 90 min respectively. The fluorescence is then quantified using a Gemini XPS microplate spectrofluorometer (Molecular Devices). Fluorescence is measured at 10 minute intervals at the excitation and emission wavelengths of 358 and 452 nm, respectively. The phosphatase inhibitor sodium orthovanadate (10 μM) is used in the assay as a negative control.

SMILES: [Na+].[Na+].[Na+].[O]=[V]([O-])([O-])[O-] [sodium orthovanadate]
- PTPase activity of VHZ: completely abolished
